Reference: ChEMBL document CHEMBL4699428, “Anticancer potential of some imidazole and fused imidazole derivatives: exploring the mechanism via epidermal growth factor receptor (EGFR) inhibition” (RSC Med Chem, 2020)
The source made the active and inactive calls. No cut-off for these calls is given here.

Key:
MCF7 = assay: Antiproliferative activity against human MCF-7 cells assessed as reduction in cell viability incubated for 48 hrs by MTT assay; type: functional, cell-based; conditions: MCF7, 48 h
MDA-MB-231 [1] = assay: Antiproliferative activity against human MDA-MB-231 cells assessed as reduction in cell viability incubated for 48 hrs by MTT assay; type: functional, cell-based; conditions: MDA-MB-231, 48 h
A549 = assay: Antiproliferative activity against human A549 cells assessed as reduction in cell viability incubated for 48 hrs by MTT assay; type: functional, cell-based; conditions: A549, 48 h
HT-29 = assay: Antiproliferative activity against human HT-29 cells assessed as reduction in cell viability incubated for 48 hrs by MTT assay; type: functional, cell-based; conditions: HT-29, 48 h
T47D = assay: Antiproliferative activity against human T47D cells assessed as reduction in cell viability incubated for 48 hrs by MTT assay; type: functional, cell-based
HBL-100 [2] = assay: Cytotoxicity against human HBL-100 cells assessed as disruption of cell morphology at 10 uM; type: cell-based; conditions: hbl-100, 10 µM
[3] = Cytotoxicity against human peripheral blood mononuclear cells assessed as reduction in cell survival at 10 uM incubated for 48 hrs by MTT assay; type: cell-based; conditions: pbmc
HBL-100 [4] = assay: Cytotoxicity against human HBL-100 cells assessed as reduction in cell survival at 10 uM incubated for 48 hrs by MTT assay; type: cell-based; conditions: hbl-100, 48 h
[5] = molecular target: Epidermal growth factor receptor (Homo sapiens, UniProt P00533); assay: Inhibition of EGFR (unknown origin) using Tyrosine 4 peptide and ATP as substrate incubated for 1 hr by Z'-lyte kinase assay based […] method
Sequence of Epidermal growth factor receptor (P00533 whole entry): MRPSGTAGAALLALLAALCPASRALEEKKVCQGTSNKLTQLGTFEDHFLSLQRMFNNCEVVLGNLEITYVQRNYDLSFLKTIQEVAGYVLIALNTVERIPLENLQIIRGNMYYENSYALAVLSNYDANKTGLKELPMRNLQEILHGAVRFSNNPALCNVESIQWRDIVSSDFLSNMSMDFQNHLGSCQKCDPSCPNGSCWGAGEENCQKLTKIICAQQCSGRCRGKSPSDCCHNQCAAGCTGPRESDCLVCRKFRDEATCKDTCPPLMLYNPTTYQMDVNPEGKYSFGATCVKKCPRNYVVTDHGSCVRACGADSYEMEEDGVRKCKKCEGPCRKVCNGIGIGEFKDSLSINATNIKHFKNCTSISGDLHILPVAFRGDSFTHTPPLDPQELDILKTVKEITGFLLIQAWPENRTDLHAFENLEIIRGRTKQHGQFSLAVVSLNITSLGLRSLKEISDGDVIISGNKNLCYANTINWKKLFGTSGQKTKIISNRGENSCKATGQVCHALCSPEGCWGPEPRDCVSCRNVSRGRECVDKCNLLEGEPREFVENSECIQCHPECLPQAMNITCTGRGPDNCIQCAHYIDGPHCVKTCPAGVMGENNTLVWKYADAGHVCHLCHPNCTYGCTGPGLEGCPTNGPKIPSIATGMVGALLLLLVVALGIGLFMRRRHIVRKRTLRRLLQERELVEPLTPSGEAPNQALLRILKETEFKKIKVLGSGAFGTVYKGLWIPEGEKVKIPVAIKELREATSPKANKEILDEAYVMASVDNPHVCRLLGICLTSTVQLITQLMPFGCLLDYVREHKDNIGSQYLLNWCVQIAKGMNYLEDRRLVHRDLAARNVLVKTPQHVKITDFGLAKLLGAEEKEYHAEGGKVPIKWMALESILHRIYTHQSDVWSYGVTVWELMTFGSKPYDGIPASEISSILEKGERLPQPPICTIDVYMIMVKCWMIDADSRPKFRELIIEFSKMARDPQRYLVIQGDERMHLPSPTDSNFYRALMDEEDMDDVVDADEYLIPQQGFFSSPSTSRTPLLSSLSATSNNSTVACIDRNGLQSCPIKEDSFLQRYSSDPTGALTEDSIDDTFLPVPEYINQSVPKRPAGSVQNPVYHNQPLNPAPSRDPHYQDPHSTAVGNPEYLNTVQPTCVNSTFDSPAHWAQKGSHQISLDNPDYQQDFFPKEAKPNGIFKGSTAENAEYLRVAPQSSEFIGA

MDA-MB-231 [6] = assay: Induction of reactive oxygen species generation in human MDA-MB-231 cells assessed as increase in intracellular ROS level at sub-IC50 concentration incubated for 48 hrs by H2DCFDA staining based flow cytometry; type: functional, cell-based
MDA-MB-231 [7] = assay: Induction of mitochondrial membrane potential depolarization in human MDA-MB-231 cells assessed as […] fluorescence to green fluorescence ratio at sub-IC50 concentration incubated for 48 hrs by JC1 staining based flow cytometry; type: functional, cell-based

| Compound | IC50 (MCF7) [µM] | IC50 (MDA-MB-231 [1]) [µM] | IC50 (A549) [µM] | IC50 (HT-29) [µM] | IC50 (T47D) [µM] | Activity (HBL-100 [2]) | Activity [3] | Activity (HBL-100 [4]) | IC50 [5] [µM] | Activity (MDA-MB-231 [6]) | Activity (MDA-MB-231 [7]) |
| --- | --- | --- | --- | --- | --- | --- | --- | --- | --- | --- | --- |
| N#Cc1ncn(-c2ccc(F)cc2)c1/N=C/c1ccc([N+](=O)[O-])cc1 | 9.1 | 13.4 | 18.1 | 15.9 | 15.9 |  |  |  |  |  |  |
| COc1ccc(/C=N/c2c(C#N)ncn2Cc2ccc(F)cc2)cc1 | 3.87 | 2.87 | 4.62 | 9.19 | 9.19 | Toxic | Non-Toxic |  |  |  |  |
| N#Cc1ncn(-c2ccc(F)cc2)c1/N=C/c1ccc(O)cc1 | 11.5 | 16.3 | 16.3 | 20.4 | 20.4 |  |  |  |  |  |  |
| COc1cc(/C=N/c2c(C#N)ncn2Cc2ccc(F)cc2)ccc1O | 11.3 | 16.1 | 10.9 | 21.5 | 21.5 |  |  |  |  |  |  |
| N#Cc1ncn(Cc2ccc(F)cc2)c1/N=C/c1ccc([N+](=O)[O-])cc1 | 10.6 | 3.44 | 2.02 | 5.72 | 5.72 |  | Toxic |  |  |  |  |
| COc1ccc(/C=N/c2c(C#N)ncn2Cc2ccc(F)cc2)c(OC)c1OC | 12.6 | > 25 | 24.3 | > 25 | > 25 |  |  |  |  |  |  |
| COc1ccc(/C=N/c2c(C#N)ncn2Cc2ccc(F)cc2)cc1O | 4.53 | 2.67 | 1.32 | 6.14 | 6.14 | Toxic | Non-Toxic |  |  |  |  |
| COc1ccc(/C=N/c2c(C#N)ncn2-c2ccc(F)cc2)cc1O | 7.85 | 21.4 | > 25 | 19.9 | 19.9 |  |  |  |  |  |  |
| CC(C)c1ccc(/C=N/c2c(C#N)ncn2-c2ccc(F)cc2)cc1 | 9.87 | 20.4 | 14.7 | > 25 | > 25 |  |  |  |  |  |  |
| COc1cc(C2N=C(C(N)=O)c3ncn(-c4ccc(F)cc4)c3N2)cc(OC)c1OC (centres undefined) | 7.46 | 8.67 | 2.29 | 2.37 | 10.7 |  | Toxic |  |  |  |  |
| COc1ccc(/C=N/c2c(C#N)ncn2-c2ccc(F)cc2)cc1OC | 14.7 | 4.27 | 2.96 | 7.23 | 7.23 |  | Toxic |  |  |  |  |
| COc1cc(/C=N/c2c(C#N)ncn2-c2ccc(F)cc2)ccc1O | 9.99 | 13.6 | 13.6 | 20.1 | 20.1 |  |  |  |  |  |  |
| COc1ccc(C2N=C(C(N)=O)c3ncn(-c4ccc(F)cc4)c3N2)cc1OC (centres undefined) | 5.71 | 6.76 | 2.29 | 3.29 | 9.96 | Non-Toxic | Non-Toxic | Non-Toxic | 0.617 |  |  |
| COc1ccc(C2N=C(C(N)=O)c3ncn(-c4ccc(N5CCN(C)CC5)c([N+](=O)[O-])c4)c3N2)cc1OC (centres undefined) |  |  |  |  |  |  |  |  |  | Active | Active |
| COc1cc(/C=N/c2c(C#N)ncn2Cc2ccc(F)cc2)cc(OC)c1OC | 9.04 | 2.87 | 9.71 | 16.5 | 17.5 |  | Toxic |  |  |  |  |
| COc1ccc(/C=N/c2c(C#N)ncn2Cc2ccc(F)cc2)cc1OC | 11.1 | 10.5 | 9.13 | 13.8 | 8.2 |  |  |  |  |  |  |
| COc1cc(/C=N/c2c(C#N)ncn2-c2ccc(F)cc2)cc(OC)c1OC | 8.32 | 18.7 | 9.88 | 13.7 | 13.7 |  |  |  |  |  |  |
| N#Cc1ncn(-c2ccc(F)cc2)c1/N=C/c1cc([N+](=O)[O-])ccc1O | 9.99 | 17.2 | 17.2 | 15.3 | 15.3 |  |  |  |  |  |  |
| COc1ccc(/C=N/c2c(C#N)ncn2-c2ccc(F)cc2)cc1 | 9.33 | 17.1 | 17.1 | 19.4 | 19.4 |  |  |  |  |  |  |
| COc1ccc(OC)c(/C=N/c2c(C#N)ncn2Cc2ccc(F)cc2)c1 | 10.9 | 17.6 | 13.1 | 22.4 | 22.4 |  |  |  |  |  |  |
| COc1ccc(OC)c(/C=N/c2c(C#N)ncn2-c2ccc(F)cc2)c1 | 7.09 | 12.3 | 9.28 | 16.3 | 16.3 |  |  |  |  |  |  |
